These are literature values, as cited in patent US7862843B2 (priority 2004, dated 2011).

The structures appear in SMILES notation.

The test system of data set [1] is prions.
Data set [2] relates to prions. This is another data set of the same source.

As for `CC(C)=O` [acetone], in the data set with prions [1], the “Inactivating the infectivity of prions” value was “ineffective”.
`O=C1CCO1` [beta-propiolactone]: the “Inactivating the infectivity of prions” value in the data set with prions [1] was “ineffective”.
For `CCO` [ethanol], in the data set on prions [1], the “Inactivating the infectivity of prions” value is reported as “ineffective”.
As to `C1CO1` [ethylene oxide], the “Inactivating the infectivity of prions” value in the data set on prions [1] is listed as “ineffective”.
As to `C=O` [formalin], the “Inactivating the infectivity of prions” value in the data set with prions [1] is recorded as “ineffective”.
`[Na+].[O-]Cl` [hypochlorite, sodium hypochlorite]: the Infectivity lost in the data set with prions [2] (1,000 ppm available chlorine, 4-16 hour exposure) is 10^4-10^5 units of infectivity. For the same compound, the “Inactivation of prions on surfaces” value in the data set on prions [2] (full strength, 20,000-50,000 ppm) is reported as “effective”.
